Experiments:
Assay in all cases: relative viability (nuclei count vs DMSO), 5 days (fraction); higher = more cells survive
[1] = compound: O=S(=O)(c1ccccc1)N(CC(F)(F)F)c1ccc(C(O)(C(F)(F)F)C(F)(F)F)cc1 + CCNC(=O)c1noc(-c2cc(C(C)C)c(O)cc2O)c1-c1ccc(CN2CCOCC2)cc1 [Luminespib] (partner 0.01 µM)
In short: (§1)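 Lung cancer cell lines in 1536-well plates were dosed by pin tool the day after seeding, either with one drug alone or with a fixed anchor-drug dose plus five library-drug doses (not always all listed) in √10 steps. After 5 days, cells were fixed and their nuclei stained in one step (final 0.05% Triton X-100, 1% formaldehyde, 1 ug/ml Hoechst), then counted on 4× images. Relative viability is the nuclei count in treated wells divided by that in vehicle wells. Values are medians of duplicate plates.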

RO-3306 + Pictilisib = compound: C1=CC2=C(C=CC(=C2)C=C3C(=O)NC(=NCC4=CC=CS4)S3)N=C1 [RO-3306] + CS(=O)(=O)N1CCN(Cc2cc3nc(-c4cccc5[nH]ncc45)nc(N4CCOCC4)c3s2)CC1 [Pictilisib] (partner 1 µM)
In short: as §1

RO-3306 + Linsitinib = compound: C1=CC2=C(C=CC(=C2)C=C3C(=O)NC(=NCC4=CC=CS4)S3)N=C1 [RO-3306] + C[C@]1(O)C[C@@H](c2nc(-c3ccc4ccc(-c5ccccc5)nc4c3)c3c(N)nccn32)C1 [Linsitinib] (partner 1 µM)
In short: as §1

[2] = compound: O=S(=O)(c1ccccc1)N(CC(F)(F)F)c1ccc(C(O)(C(F)(F)F)C(F)(F)F)cc1 + CC(C)C[C@H](NC(=O)[C@H](Cc1ccccc1)NC(=O)c1cnccn1)B(O)O [Bortezomib] (partner 0.002 µM)
In short: as §1

Cell Line | relative viability ([1]; first compound 0.8 µM) | relative viability ([1]; first compound 2.53 µM) | relative viability ([1]; first compound 8 µM) | relative viability (RO-3306 + Pictilisib; first compound 0.01 µM) | relative viability (RO-3306 + Pictilisib; first compound 0.03162 µM) | relative viability (RO-3306 + Pictilisib; first compound 0.1 µM) | relative viability (RO-3306 + Pictilisib; first compound 0.3162 µM) | relative viability (RO-3306 + Pictilisib; first compound 1 µM) | relative viability (RO-3306 + Linsitinib; first compound 0.01 µM) | relative viability (RO-3306 + Linsitinib; first compound 0.03162 µM) | relative viability (RO-3306 + Linsitinib; first compound 0.1 µM) | relative viability (RO-3306 + Linsitinib; first compound 0.3162 µM) | relative viability (RO-3306 + Linsitinib; first compound 1 µM) | relative viability ([2]; first compound 0.8 µM) | relative viability ([2]; first compound 2.53 µM) | relative viability ([2]; first compound 8 µM)
NCI-H520 | 0.218 | 0.242 | 0.237 | 0.307 | 0.266 | 0.283 | 0.312 | 0.314 | 1.05 | 0.872 | 0.82 | 1.2 | 0.824 | 0.962 | 0.785 | 0.626
NCI-H596 | 1.13 | 0.69 | 0.923 | 0.345 | 0.394 | 0.375 | 0.372 | 0.287 | 0.954 | 0.903 | 1.15 | 1.04 | 1.04 | 0.997 | 0.791 | 0.843
NCI-H647 | 0.275 | 0.19 | 0.233 | 0.326 | 0.464 | 0.401 | 0.454 | 0.299 | 1.43 | 1.07 | 1.21 | 1.29 | 1.07 | 1.27 | 1.03 | 0.967
NCI-H650 | 1.01 | 0.854 | 0.853 | 0.983 | 0.928 | 0.792 | 0.777 | 0.916 | 0.598 | 0.672 | 0.721 | 0.859 | 0.748 | 0.832 | 0.776 | 0.823
NCI-H661 | 0.89 | 0.866 | 0.821 | 0.41 | 0.377 | 0.356 | 0.392 | 0.363 | 0.569 | 0.458 | 0.581 | 0.586 | 0.728 | 0.885 | 0.883 | 0.642
NCI-H727 | 0.389 | 0.292 | 0.358 | 0.355 | 0.356 | 0.438 | 0.319 | 0.41 | 0.464 | 0.221 | 0.28 | 0.277 | 0.35 | 1.23 | 0.762 | 0.737
NCI-H838 | 0.24 | 0.257 | 0.299 | 0.411 | 0.34 | 0.432 | 0.505 | 0.393 | 1.11 | 0.742 | 1.05 | 1.15 | 0.92 | 0.907 | 0.863 | 0.906
NCI-H1355 | 0.781 | 0.756 | 0.759 | 0.423 | 0.396 | 0.493 | 0.512 | 0.316 | 1.04 | 0.802 | 0.763 | 0.929 | 0.799 | 1.39 | 1.12 | 1.1
NCI-H1437 | 1.12 | 0.903 | 0.831 | 0.403 | 0.364 | 0.372 | 0.472 | 0.449 | 1.15 | 0.673 | 0.945 | 1.03 | 1.1 | 0.485 | 0.423 | 0.588
NCI-H1563 | 0.545 | 0.485 | 0.551 | 0.641 | 0.597 | 0.69 | 0.62 | 0.59 | 1.08 | 1.14 | 1.3 | 1.18 | 1.16 | 0.915 | 0.927 | 0.685
NCI-H1651 | 0.995 | 0.871 | 0.732 | 0.598 | 0.359 | 0.574 | 0.601 | 0.634 | 0.956 | 0.927 | 0.922 | 1.18 | 0.977 | 0.981 | 0.957 | 0.797
NCI-H1666 | 0.831 | 0.84 | 0.889 | 0.451 | 0.407 | 0.389 | 0.35 | 0.406 | 0.829 | 0.693 | 0.684 | 0.823 | 0.834 | 0.948 | 0.696 | 0.685
NCI-H1734 | 0.191 | 0.217 | 0.204 | 0.53 | 0.435 | 0.468 | 0.452 | 0.447 | 1.05 | 0.578 | 0.823 | 0.891 | 0.836 | 1.18 | 0.917 | 1.07
NCI-H1755 | 0.505 | 0.418 | 0.458 | 0.523 | 0.376 | 0.424 | 0.457 | 0.473 | 1.05 | 1 | 1.02 | 0.995 | 1.09 | 1.07 | 0.933 | 1.03
NCI-H1792 | 0.419 | 0.359 | 0.269 | 0.288 |  | 0.288 | 0.287 | 0.224 | 0.728 |  | 0.569 | 0.604 | 0.31 | 0.973 | 0.842 | 0.737
NCI-H1915 | 0.813 | 0.776 | 0.786 | 0.919 | 0.827 | 0.878 | 0.917 | 0.615 | 1.16 | 1.11 | 1.08 | 1.08 | 1.07 | 1.08 | 0.964 | 0.974

Source: the supplement of paper PMC10307832
